Test results as given in patent US20260076975A1, “TPK AGONIST AND METHOD FOR USING SAME TO TREAT NEURODEGENERATIVE DISEASES” (SHANGHAI RAISING PHARMACEUTICAL CO., LTD., priority 2022, published 2026).
Like-named read-outs stand apart in the source and are kept apart here.

Target: TPK enzyme (Homo sapiens, UniProt Q9H3S4)
Assay: TPK enzyme activity test (TDP formation from thiamine and ATP, HPLC detection)
Type: biochemical
Method: The purpose of this example was to test the promoting effect of compounds on TPK enzyme activity and evaluate the in vitro activity of the compounds based on EC50 and Emax.
1.1) The constant-temperature water-bath shaker was pre-heated half an hour in advance at a pre-heating temperature of 37° C.
1.2) The stock solution of the compound to be tested was taken out, allowed to thaw at room temperature, and then diluted to the required concentration.
1.3) The required reagents were placed on ice to thaw.
2.1) For each reaction system, TPK enzyme solution, Tris-HCl buffer solution, and ATP solution were added. The concentration of ATP used was 1-500 mM. The above three solutions were formulated into a homogeneous mixture.
2.2) The mixture of the above three solutions was dispensed into centrifuge tubes. Then, the compound at the required concentration was added to each centrifuge tube. Finally, thiamine solution (1-100 μM) was added. After the addition of the above system was completed, the centrifuge tubes were tightly capped, inserted into a floating board, and placed in the constant-temperature water-bath shaker that had been pre-heated to 37° C. for incubation for 0.5-2.0 hours.
2.3) After the incubation was completed, perchloric acid stop solution was added and mixed well. Samples were taken into 1.5 mL centrifuge tubes and stored at −20° C.
3.1) The samples stored at −20° C. were taken out, thawed at room temperature, and then subjected to derivatization treatment. The samples were placed in centrifuge tubes, a potassium ferricyanide derivatization reagent was added, and finally phosphoric acid stop solution was added to stop the reaction.
3.2) The derivatized samples were placed in sample vials for liquid chromatography analysis, and the contents of TDP/thiamine were detected by high performance liquid chromatography. TKP enzyme activity=TDP (nM)/mg protein/min.
The effects of the compounds of the present invention on TPK enzyme activity at different concentrations were determined according to the above procedures.

[1] = promoting effect on TPK enzyme activity, calculated with the effect of DMSO on TPK enzyme activity as 100%, read-out: Emax
[2] = promoting effect on TPK enzyme activity

TPK enzyme, sequence (Q9H3S4 whole entry): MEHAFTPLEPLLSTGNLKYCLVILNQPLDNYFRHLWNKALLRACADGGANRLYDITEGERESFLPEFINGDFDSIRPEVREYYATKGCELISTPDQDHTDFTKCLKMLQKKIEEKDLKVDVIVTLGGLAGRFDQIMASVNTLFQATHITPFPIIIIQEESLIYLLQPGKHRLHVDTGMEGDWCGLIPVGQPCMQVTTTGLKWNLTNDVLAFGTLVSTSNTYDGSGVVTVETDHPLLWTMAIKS

SMILES | Emax [1] [%] | EC50 [2] [µM] | Emax [%]
COc1ccc(Cn2c(C(=O)N3CCC(CCOc4ccc5c(c4)NC(=O)CC5)CC3)cc3sccc32)cc1 [Compound 134, 7-(2-(1-(4-(4-methoxybenzyl)-4H-thieno[3,2-b]pyrrole-5-carbonyl)piperidin-4-yl)ethoxy)-3,4-dihydroquinolin-2(1H)-one] | 149 |  | 
C[C@@H]1C[C@@H](COc2ccc3c(c2)NC(=O)CC3)CN(CC[C@@H](N)c2cccc(Cl)c2Cl)C1 [Compound 135, 7-(((3R,5R)-1-((R)-3-amino-3-(2,3-dichlorophenyl)propyl)-5-methylpiperidin-3-yl)methoxy)-3,4-dihydroquinolin-2(1H)-one] | 133 |  | 
O=C1NCCN1CCN1CCC(c2cn(-c3ccc(F)cc3)c3ccc(Cl)cc23)CC1 [Compound 136] | 137 | 2.79 | 
CC(C)(C)NC(=O)NC(=O)CN1CCC(c2c[nH]c3ccccc23)CC1 [Compound 137] | 146 | 110 | 
O=C(CN1CCC(c2c[nH]c3ccccc23)CC1)NC(=O)NC1CC1 [Compound 138] | 180 | 1.01 | 
O=C(CCc1c[nH]c2ccccc12)N1CCN(CC(=O)N2CCCC2)CC1 [Compound 139] | 191 | 8.09 | 
O=C(CN1CCN(C(=O)CCC2Cc3ccccc3NC2=O)CC1)Nc1ccccc1Cl (stereo not shown) [Compound 140] | 203 | 8.75 | 
O=C1CCc2cc(OCC(=O)N3CCCN(Cc4ccc(Cl)cc4)CC3)ccc2N1 [Compound 141] | 124 |  | 
Cc1cc2c(cc1S(=O)(=O)N(C)CC(=O)NCc1ccc(F)cc1)OCC(=O)N2 [Compound 142] | 126 |  | 
CCC1Oc2cc(S(=O)(=O)N(C)CC(=O)NCc3ccc(Cl)cc3)c(C)cc2NC1=O (stereo not shown) [Compound 143] | 122 |  | 
CN(CC(=O)NCc1ccc(F)cc1)S(=O)(=O)c1ccc2[nH]c(=O)ccc2c1 [Compound 144] | 121 |  | 
CN(CC(=O)NCc1ccc(Cl)cc1)S(=O)(=O)c1ccc2[nH]c(=O)ccc2c1 [Compound 145] | 120 |  | 
O=C(CN1CCN(c2ccc(F)cc2)CC1)NC(=O)NCCc1c[nH]c2ccc(F)cc12 [Compound 146] | 175 | 1.34 | 
O=C(CCn1cnc2sccc2c1=O)N1CCN(c2cccc(C(F)(F)F)c2)CC1 [Compound 147] | 147 |  | 
Cc1cc(=O)oc2cc(OCC(=O)N3CCN(c4cccc(C(F)(F)F)c4)CC3)ccc12 [Compound 148] | 165 | 1.23 | 
Cc1ccc(Cl)cc1N1CCN(CCCNC(=O)C2COc3ccccc3C2)CC1 (stereo not shown) [Compound 149] | 182 |  | 

SMILES | Emax [1] [%] | EC50 [2] [µM] | Emax [%]
COc1cccc2cc(C(=O)N3CCN(c4cccc(C(F)(F)F)c4)CC3)c(=O)oc12 [Compound 150] | 212 | 0.139 | 
CCCc1cc(=O)n2nc(N3CCC(C(=O)NCc4ccc(CC)cc4)CC3)sc2n1 [Compound 151] | 155 | 3.36 | 
CC(CNC(=O)COc1ccc2c(c1)CCC(=O)N2)N1CCCC1 (stereo not shown) [Compound 152] | 161 | 9.63 | 
CC(C)C(CNC(=O)COc1ccc2c(c1)CCC(=O)N2)N1CCc2ccccc2C1 (stereo not shown) [Compound 153] | 201 | 7.86 | 
O=C1COc2ccc(C(=O)COC(=O)C=Cc3ccc(S(=O)(=O)N4CCCCCC4)cc3)cc2N1 [Compound 154] | 132 |  | 
O=C1COc2ccc(C(=O)CSCCSCC(=O)c3ccc4c(c3)NC(=O)CO4)cc2N1 [Compound 155] | 125 |  | 
CC(NC(=O)Nc1nncs1)c1ccc2c(c1)CCC(=O)N2 (stereo not shown) [Compound 156] | 120 |  | 
O=C1CCc2cc(S(=O)(=O)N3CCN(c4cccc(C(F)(F)F)c4)CC3)ccc2N1 [Compound 157] | 155 | 2.61 | 
CC(=O)N1CCCc2cc(C(=O)N3CCN(c4cccc(C(F)(F)F)c4)CC3)ccc21 [Compound 165, 1-(6-(4-(3-(trifluoromethyl)phenyl)piperazine-1-carbonyl)-3,4-dihydroquinolin-1(2H)-yl)ethan-1-one] |  | 9.8 | 148
CC(=O)N1CCCc2cc(C(=O)N3CCN(c4cccc(Cl)c4Cl)CC3)ccc21 [Compound 166, 1-(6-(4-(2,3-dichlorophenyl)piperazine-1-carbonyl)-3,4-dihydroquinolin-1(2H)-yl)ethan-1-one] |  | 4.25 | 156
CC(=O)N1CCCc2cc(C(=O)N3CCC(Cc4ccc(F)cc4)CC3)ccc21 [Compound 168, 1-(6-(4-(4-fluorobenzyl)piperidine-1-carbonyl)-3,4-dihydroquinolin-1(2H)-yl)ethan-1-one] | 151 | 5.43 | 
COc1ccc(C(=O)NCCC(=O)N2CCN(c3cccc(Cl)c3Cl)CC2)cc1OC [Compound 169, N-(3-(4-(2,3-dichlorophenyl)piperazin-1-yl)-3-oxopropyl)-3,4-dimethoxybenzamide] |  | 7.23 | 148
COc1ccc(C(=O)NCCCC(=O)N2CCN(c3cccc(Cl)c3Cl)CC2)cc1OC [Compound 170] |  | 4.39 | 156
COc1ccc(C(=O)NCCCCC(=O)N2CCN(c3cccc(Cl)c3Cl)CC2)cc1OC [Compound 171, N-(5-(4-(2,3-dichlorophenyl)piperazin-1-yl)-5-oxopentyl)-3,4-dimethoxybenzamide] |  |  | 127
COC(=O)c1cc(OC)c(OC)cc1C(=O)N1CCN(c2cccc(Cl)c2Cl)CC1 [Compound 173, methyl 2-(4-(2,3-dichlorophenyl)piperazine-1-carbonyl)-4,5-dimethoxybenzoate] |  |  | 132
O=C(CCOCc1ccc(N2CCCCC2)nc1)NCCc1cccc2ccc(O)cc12 [Compound 178, N-(2-(7-hydroxynaphthalen-1-yl)ethyl)-3-((6-(piperidin-1-yl)pyridin-3-yl)methoxy)propanamide] |  |  | 120
